{"source": "ChEMBL document CHEMBL1149698", "about": "“Metallocene-based antimalarials: an exploration into the influence of the ferrocenyl moiety on in vitro antimalarial activity in chloroquine-sensitive and chloroquine-resistant strains of Plasmodium falciparum” (Bioorg Med Chem, 2007)", "key": {"[1]": {"tested_on": "Plasmodium falciparum", "test": "Antimalarial activity against chloroquine-sensitive Plasmodium falciparum 3D7", "type": "functional", "conditions": "read-out: ED50 (the source's name)"}, "[2]": {"tested_on": "Plasmodium falciparum", "test": "Antimalarial activity against chloroquine-resistant Plasmodium falciparum K1", "type": "functional", "conditions": "read-out: ED50 (the source's name)"}}, "note": "pEC50: −log10 of the molar value."}
{"molecule": "CCN(CC)CCCC(C)Nc1ccnc2cc(Cl)ccc12", "note": "(configuration not stated) [CHLOROQUINE]", "values": [{"measurement": "pEC50", "setting": "[1]", "result": 8.07}, {"measurement": "pEC50", "setting": "[2]", "result": 6.54}]}
